Measurements published in the supplement of paper PMC10307832.

Assays:
Experiment in all cases: relative viability (nuclei count vs DMSO), 5 days (fraction); higher = more cells survive
[1] = compound: O=c1[nH]cc(F)c(=O)[nH]1 [5-Fluorouracil] + CS(=O)(=O)CCNCc1ccc(-c2ccc3ncnc(Nc4ccc(OCc5cccc(F)c5)c(Cl)c4)c3c2)o1 [Lapatinib] (partner 2 µM)
Summary of the method: (§1)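 Relative viability is defined as nuclei in treated wells over nuclei in vehicle wells. Duplicate plates were run and medians reported. Lung cancer cell lines in 1536-well plates were dosed by pin tool one day after seeding, with one drug or with a fixed anchor-drug dose plus five library-drug doses (not always all listed) in √10 steps, and nuclei were counted after 5 days.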

[2] = compound: O=c1[nH]cc(F)c(=O)[nH]1 [5-Fluorouracil] + CC(C)C[C@H](NC(=O)[C@H](Cc1ccccc1)NC(=O)c1cnccn1)B(O)O [Bortezomib] (partner 0.002 µM)
Summary of the method: as §1

Sulindac + Linsitinib = compound: CC1=C(CC(=O)O)c2cc(F)ccc2/C1=C\c1ccc([S+](C)[O-])cc1 [Sulindac] + C[C@]1(O)C[C@@H](c2nc(-c3ccc4ccc(-c5ccccc5)nc4c3)c3c(N)nccn32)C1 [Linsitinib] (partner 1 µM)
Summary of the method: as §1

Sulindac + Decitabine = compound: CC1=C(CC(=O)O)c2cc(F)ccc2/C1=C\c1ccc([S+](C)[O-])cc1 [Sulindac] + Nc1ncn([C@H]2C[C@H](O)[C@@H](CO)O2)c(=O)n1 [Decitabine] (partner 2 µM)
Summary of the method: as §1

Cell Line | relative viability ([1]; first compound 0.02 µM) | relative viability ([1]; first compound 0.2 µM) | relative viability ([1]; first compound 0.6325 µM) | relative viability ([1]; first compound 2 µM) | relative viability ([2]; first compound 0.02 µM) | relative viability ([2]; first compound 0.2 µM) | relative viability ([2]; first compound 0.6325 µM) | relative viability ([2]; first compound 2 µM) | relative viability (Sulindac + Linsitinib; first compound 0.08 µM) | relative viability (Sulindac + Linsitinib; first compound 0.253 µM) | relative viability (Sulindac + Linsitinib; first compound 2.53 µM) | relative viability (Sulindac + Linsitinib; first compound 8 µM) | relative viability (Sulindac + Decitabine; first compound 0.08 µM) | relative viability (Sulindac + Decitabine; first compound 0.253 µM) | relative viability (Sulindac + Decitabine; first compound 2.53 µM) | relative viability (Sulindac + Decitabine; first compound 8 µM) | relative viability (Sulindac + Linsitinib; first compound 0.8 µM) | relative viability (Sulindac + Decitabine; first compound 0.8 µM)
NCI-H1792 | 0.893 | 0.853 | 0.235 | 0.161 | 1.03 | 0.84 | 0.272 | 0.185 | 0.557 | 0.561 | 0.455 | 0.558 | 0.476 | 0.632 | 0.581 | 0.417 | – | –
NCI-H1915 | 0.908 | 0.999 | 0.97 | 0.724 | 0.717 | 1 | 0.915 | 0.765 | 1.13 | 1.14 | 1.11 | 1.07 | 0.229 | 0.268 | 0.261 | 0.27 | 1.09 | 0.266
NCI-H1975 | 0.879 | 1.09 | 0.495 | 0.333 | 0.472 | 0.3 | 0.214 | 0.17 | 1.14 | 1.03 | 1.07 | 1.05 | 0.594 | 0.413 | 0.394 | 0.36 | – | 0.352
NCI-H1993 | 0.706 | 0.765 | 0.65 | 0.591 | 1.36 | 0.919 | 0.658 | 0.559 | 0.741 | 0.674 | 0.735 | 0.82 | 0.558 | 0.298 | 0.61 | 0.627 | 0.789 | 0.454
NCI-H2009 | 0.941 | 0.919 | 0.764 | 0.812 | 1.04 | 1.01 | 0.722 | 0.463 | 1.22 | 1.3 | 1.13 | 1.23 | 0.455 | 0.397 | 0.362 | 0.359 | 1.05 | 0.371
NCI-H2023 | 0.719 | 0.234 | 0.0995 | 0.113 | 0.803 | 0.214 | 0.11 | 0.0857 | 0.808 | 0.725 | 0.712 | 0.757 | 0.233 | 0.234 | 0.206 | 0.254 | 0.43 | 0.203
NCI-H2085 | 0.654 | 0.957 | 0.923 | 0.704 | 1.09 | 1.13 | 0.995 | 0.738 | 0.894 | 0.856 | 0.848 | 0.912 | 0.497 | 0.556 | 0.525 | 0.5 | 0.876 | 0.545
NCI-H2087 | 1.03 | 1.22 | 0.748 | 0.548 | 0.884 | 0.757 | 0.599 | 0.497 | 1.01 | 1.13 | 0.964 | 1.17 | 0.186 | 0.324 | 0.246 | 0.323 | 0.938 | 0.254
NCI-H2126 | 0.801 | 0.444 | 0.321 | 0.281 | 0.948 | 0.583 | 0.337 | 0.318 | 0.608 | 0.713 | 0.726 | 0.728 | 0.623 | 0.627 | 0.553 | 0.549 | 0.661 | 0.543
NCI-H2347 | 1.07 | 0.796 | 0.48 | 0.436 | 0.962 | 1.1 | 0.367 | 0.446 | 1.07 | 1.09 | 1.06 | 1.16 | 0.609 | 0.632 | 0.652 | 0.636 | 0.982 | 0.548
NCI-H2405 | 1.06 | 1.22 | 1.06 | 0.63 | 0.943 | 1.02 | 0.96 | 0.681 | 1.01 | 0.934 | 0.918 | 1.13 | 0.803 | 0.723 | 0.749 | 0.823 | 0.852 | 0.713
NCI-H3122 | 0.994 | 0.903 | 0.338 | 0.246 | 0.998 | 0.897 | 0.353 | 0.298 | 1.07 | 1.01 | 1.07 | 1.07 | 0.409 | 0.385 | 0.435 | 0.439 | 0.928 | 0.352
PC-3 [JPC-3] | 0.479 | 0.48 | 0.485 | 0.476 | 0.841 | 0.84 | 0.762 | 0.643 | 0.932 | 0.95 | 0.905 | 0.984 | 0.777 | 0.791 | 0.77 | 0.855 | 0.951 | 0.838
PC-14 | 0.305 | 0.433 | 0.327 | 0.292 | 0.876 | 0.897 | 0.818 | 0.516 | 1.01 | 1.02 | 1.02 | 1.07 | 0.25 | 0.274 | 0.215 | 0.257 | 0.708 | 0.223
RERF-LC-KJ | 0.903 | 0.824 | 0.846 | 0.704 | 1.24 | 1.17 | 1.14 | 0.939 | 0.922 | 0.948 | 0.895 | 0.895 | 0.667 | 0.706 | 0.63 | 0.751 | 0.738 | 0.608
SK-LU-1 | 0.904 | 0.956 | 0.846 | 0.704 | 1.12 | 1.34 | 1.18 | 0.981 | 1.13 | 1.27 | 1 | 1.5 | 0.691 | 0.642 | 0.647 | 0.673 | 1.19 | 0.53
SW 1573 | 1.09 | 1.32 | 0.546 | 0.885 | 1.08 | 1.1 | 0.922 | 0.638 | 0.834 | 0.788 | 0.95 | 0.722 | 0.688 | 0.538 | 0.368 | 0.641 | 0.804 | 0.443
